{"source": "patent US5633016A", "about": "“Combination chemotherapy” (SmithKline Beecham Corporation, priority 1995, dated 1997)", "key": {"DNA topoisomerase I": {"test_system": "DNA topoisomerase I", "details": "background statement; cited from earlier work"}, "[1]": {"test_system": "non-small cell lung carcinoma", "details": "humans, sole chemotherapeutic agent; cited from earlier work"}, "[2]": {"assay_type": "physicochemical", "details": "hang-bag, 24 hours", "method": "Topotecan diluted in saline (10 ug/ml or 500 ug/ml) or dextrose (6.7 ug/ml or 330 ug/ml) is stable in a hang-bag for 24 hours with at least 95% recovery."}, "esophageal cancer": {"test_system": "esophageal cancer", "details": "humans, sole chemotherapeutic agent; cited from earlier work"}, "[3]": {"assay_type": "physicochemical", "details": "plastic bags, room temperature", "method": "Stability - Shelf life surveillance of the intact vials is ongoing. Because the single-use lyophilized dosage form contains no antibacterial preservatives, it is advised that the reconstituted solution be discarded eight hours after initial entry into the vial. Further dilutions of the reconstituted solution to concentrations of 0.02 mg/ml and 0.1 mg. ml in 5% Dextrose Injection, USP, (\"D5W\") or 0.9% Sodium Chloride Injection, USP, (\"NS\") in plastic bags stored at room temperature yielded the following stability results:\nPercentage of Initial Topotecan Remaining in Solution"}, "[4]": {"details": "in words; cited from earlier work"}, "ovarian cancer": {"test_system": "ovarian cancer", "details": "humans, sole chemotherapeutic agent; cited from earlier work"}}, "note": "Like-named read-outs stand apart in the source and are kept apart here.", "data": [{"compound": "CC[C@@]1(O)C(=O)OCc2c1cc1n(c2=O)Cc2cc3c(CN(C)C)c(O)ccc3nc2-1", "note": "[Topotecan, (S)-10[(dimethylamino)methyl]-4-ethyl-4,9-dihydroxy-IH-pyrano[3',4':6,7]indolizino[1,2-b]quinolone-3,14(4H,12H)-dione]", "values": [{"measurement": "inhibition of DNA topoisomerase I", "setting": "DNA topoisomerase I", "value": "specific inhibitor of DNA topoisomerase I"}, {"measurement": "clinical efficacy", "setting": "[1]", "value": "shown clinical efficacy"}, {"measurement": "recovery", "setting": "[2]; dextrose (6.7 ug/ml or 330 ug/ml)", "value": "at least 95%"}, {"measurement": "recovery", "setting": "[2]; saline (10 ug/ml or 500 ug/ml)", "value": "at least 95%"}, {"measurement": "clinical efficacy", "setting": "esophageal cancer", "value": "shown clinical efficacy"}, {"measurement": "Percentage of Initial Topotecan Remaining in Solution", "setting": "[3]; D5W (5% Dextrose Injection, USP), 0.02 mg/ml, 0 hrs", "value": 100.00, "unit": "Percentage"}, {"measurement": "Percentage of Initial Topotecan Remaining in Solution", "setting": "[3]; D5W (5% Dextrose Injection, USP), 0.1 mg/ml, 0 hrs", "value": 100.00, "unit": "Percentage"}, {"measurement": "Percentage of Initial Topotecan Remaining in Solution", "setting": "[3]; NS (0.9% Sodium Chloride Injection, USP), 0.02 mg/ml, 0 hrs", "value": 100.00, "unit": "Percentage"}, {"measurement": "Percentage of Initial Topotecan Remaining in Solution", "setting": "[3]; NS (0.9% Sodium Chloride Injection, USP), 0.1 mg/ml, 0 hrs", "value": 100.00, "unit": "Percentage"}, {"measurement": "Percentage of Initial Topotecan Remaining in Solution", "setting": "[3]; NS (0.9% Sodium Chloride Injection, USP), 0.1 mg/ml, 6 hrs", "value": 97.71, "unit": "Percentage"}, {"measurement": "Percentage of Initial Topotecan Remaining in Solution", "setting": "[3]; NS (0.9% Sodium Chloride Injection, USP), 0.1 mg/ml, 24 hrs", "value": 98.30, "unit": "Percentage"}, {"measurement": "Percentage of Initial Topotecan Remaining in Solution", "setting": "[3]; NS (0.9% Sodium Chloride Injection, USP), 0.1 mg/ml, 48 hrs", "value": 98.35, "unit": "Percentage"}, {"measurement": "water solubility", "setting": "[4]", "value": "water-soluble"}, {"measurement": "clinical efficacy", "setting": "ovarian cancer", "value": "shown clinical efficacy"}]}]}
